Laboratory results from patent publication US9573978B2, “Cyclosporin derivatives for the treatment and prevention of a viral infection” (priority 2010, dated 2017).
Starred links: 1 amine or outer side, 2 acyl side, 3 side chain; linkers in the order of their positions; H or OH if unused. Non-standard residues stand in square brackets, D forms with d. Residues, ends and D or L forms follow the SMILES beside them. ξ: configuration not given here. NMe(dihydroBmt) = CCCC[C@@H](C)[C@@H](O)[C@H](NC)C(=O)O; MeBmt = C/C=C/C[C@@H](C)[C@@H](O)[C@H](NC)C(=O)O; X2 = CN([C@H](SCCCN1CCOCC1)C(=O)[*:2])[*:1]; NMeLeu(4-OMe) = CN[C@@H](CC(C)(C)OC)C(=O)O; X4 = CCN(CC)CCS[C@@H](C(=O)[*:2])N(C)[*:1]; X1 = CCN(CC)CCS[C@H](C(=O)[*:2])N(C)[*:1]; X5 = CC=CCC(C)C(O)C(C(=O)[*:2])N(C)[*:1]; X7 = C=CCOC(C)(C)CC(C(=O)[*:2])N(C)[*:1]; X6 = CN(C(SCCCN1CCOCC1)C(=O)[*:2])[*:1]; NMeIle(3ξ) = CCC(C)[C@H](NC)C(=O)O; NMeL = CN[CH](CC(C)C)C(=O)O; NMeV = CN[CH](C(=O)O)C(C)C; Abu = CC[CH](N)C(=O)O

The compounds below were run on HCV replicon in Huh7 human hepatoma cell line ET (luc-ubi-neo/ET) (assay: HCV subgenomic replicon assay, luciferase end point, cell line ET (luc-ubi-neo/ET)). Conditions: HCV replicon-derived luciferase activity; read-out: Antiviral activity IC50.
Assay type: cell-based, Hepatitis C virus
Protocol: The anti-HCV activity of cyclosporine derivatives were evaluated in the HCV subgenomic replicon assay. The assay use the cell line ET (luc-ubi-neo/ET), which is a Huh7 human hepatoma cell line harboring an HCV replicon with a stable luciferase (Luc) reporter. HCV RNA replication was assessed by quantifying HCV replicon-derived luciferase activity. The antiviral activity of cyclosporine analogs were evaluated after drug treatment, the EC 50 and EC 90 were determined in subsequent assessments by using the luciferase end point (Krieger, N., et al., 2001, J. Virol. 75, 4614-4624; Pietschmann, T., et al., 2002, J. Virol. 76, 4008-4021; each of which is incorporated herein by reference).

Going from `C=CCOC(C)(C)CC1C(=O)NC(C(C)C)C(=O)N(C)C(CC(C)C)C(=O)NC(C)C(=O)NC(C)C(=O)N(C)C(CC(C)C)C(=O)N(C)C(CC(C)C)C(=O)N(C)C(C(C)C)C(=O)N(C)C(C(O)C(C)CC=CC)C(=O)NC(CC)C(=O)N(C)C(SCCCN2CCOCC2)C(=O)N1C` [Example 26, [(R)-3-(N-Morphlino)propylthio-Sar]-3-[(γ-Allyloxy)-NMeLeu]-4-cyclosporin] (cyclo([X5][Abu][X6][X7]V[NMeL]AA[NMeL][NMeL][NMeV]); configuration not given here) to `C/C=C/C[C@@H](C)[C@@H](O)[C@H]1C(=O)N[C@@H](CC)C(=O)N(C)CC(=O)N(C)[C@@H](C(C)C)C(=O)N[C@@H](C(C)C)C(=O)N(C)[C@@H](CC(C)C)C(=O)N[C@@H](C)C(=O)N[C@H](C)C(=O)N(C)[C@@H](CC(C)C)C(=O)N(C)[C@@H](CC(C)C)C(=O)N(C)[C@@H](C(C)C)C(=O)N1C` [SDZ-220-384, N-MeVal-4-Cyclosporin], the IC50 rises from 80 nM to 170 nM (2.1-fold).

First: C/C=C/C[C@@H](C)[C@@H](O)[C@H]1C(=O)N[C@@H](CC)C(=O)N(C)[C@H](SCCN(CC)CC)C(=O)N(C)[C@@H](C(C)C)C(=O)N[C@@H](C(C)C)C(=O)N(C)[C@@H](CC(C)C)C(=O)N[C@@H](C)C(=O)N[C@H](C)C(=O)N(C)[C@@H](CC(C)C)C(=O)N(C)[C@@H](CC(C)C)C(=O)N(C)[C@@H](C(C)C)C(=O)N1C [[(R)-2-(N,N-Diethylamino)ethylthio-Sar]-3-[NMeVal]-4-cyclosporin] (cyclo(A[dA][NMeL][NMeL][NMeV][MeBmt][Abu][X1][NMeV]V[NMeL]))
Second: C/C=C/C[C@@H](C)[C@@H](O)[C@H]1C(=O)N[C@@H](CC)C(=O)N(C)[C@@H](SCCN(CC)CC)C(=O)N(C)[C@@H](C(C)C)C(=O)N[C@@H](C(C)C)C(=O)N(C)[C@@H](CC(C)C)C(=O)N[C@@H](C)C(=O)N[C@H](C)C(=O)N(C)[C@@H](CC(C)C)C(=O)N(C)[C@@H](CC(C)C)C(=O)N(C)[C@@H](C(C)C)C(=O)N1C [[(S)-2-(N,N-Diethylamino)ethylthio-Sar]-3-[NMeVal]-4-cyclosporin] (cyclo(A[dA][NMeL][NMeL][NMeV][MeBmt][Abu][X4][NMeV]V[NMeL]))
The IC50 of the first is 92-fold lower: 40 nM for the first, 3660 nM for the second. The first is the more potent here.

With “[(S)-2-(N,N-Diethylamino)ethylthio-Sar]-3-[NMeIle]-4-cyclosporin” the IC50 was 1870 nM.

Same assay, conditions: Hepatitis C virus, Huh-7, read-out: Antiviral activity IC50

Compared with `C/C=C/C[C@@H](C)[C@@H](O)[C@H]1C(=O)N[C@@H](CC)C(=O)N(C)[C@H](SCCCN2CCOCC2)C(=O)N(C)[C@@H](CC(C)(C)O)C(=O)N[C@@H](C(C)C)C(=O)N(C)[C@@H](CC(C)C)C(=O)N[C@@H](C)C(=O)N[C@H](C)C(=O)N(C)[C@@H](CC(C)C)C(=O)N(C)[C@@H](CC(C)C)C(=O)N(C)[C@@H](C(C)C)C(=O)N1C` [Example 1, [(R)-3-(N-Morphlino)propylthio-Sar]-3-[(γ-Hydroxy)-NMeLeu]-4-cyclosporin], `C/C=C/C[C@@H](C)[C@@H](O)[C@H]1C(=O)N[C@@H](CC)C(=O)N(C)[C@H](SCCCN2CCOCC2)C(=O)N(C)[C@@H](CC(C)(C)OC)C(=O)N[C@@H](C(C)C)C(=O)N(C)[C@@H](CC(C)C)C(=O)N[C@@H](C)C(=O)N[C@H](C)C(=O)N(C)[C@@H](CC(C)C)C(=O)N(C)[C@@H](CC(C)C)C(=O)N(C)[C@@H](C(C)C)C(=O)N1C` [Example 12, [(R)-3-(N-Morphlino)propylthio-Sar]-3-[(γ-Methoxy)-NMeLeu]-4-cyclosporin] is 1.5-fold higher in IC50: 40 nM for the first, 60 nM for the second. The first is the more potent here.

Going from `C/C=C/C[C@@H](C)[C@@H](O)[C@H]1C(=O)N[C@@H](CC)C(=O)N(C)[C@H](SCCCN(CC)CC)C(=O)N(C)[C@@H](CC(C)(C)O)C(=O)N[C@@H](C(C)C)C(=O)N(C)[C@@H](CC(C)C)C(=O)N[C@@H](C)C(=O)N[C@H](C)C(=O)N(C)[C@@H](CC(C)C)C(=O)N(C)[C@@H](CC(C)C)C(=O)N(C)[C@@H](C(C)C)C(=O)N1C` [Example 2, [(R)-3-(N,N-Diethylamino)propylthio-Sar]-3-[(γ-Hydroxy)-NMeLeu]-4-cyclosporin] to `C/C=C/C[C@@H](C)[C@@H](O)[C@H]1C(=O)N[C@@H](CC)C(=O)N(C)[C@H](SCCN(CC)CC)C(=O)N(C)[C@@H](C(C)CC)C(=O)N[C@@H](C(C)C)C(=O)N(C)[C@@H](CC(C)C)C(=O)N[C@@H](C)C(=O)N[C@H](C)C(=O)N(C)[C@@H](CC(C)C)C(=O)N(C)[C@@H](CC(C)C)C(=O)N(C)[C@@H](C(C)C)C(=O)N1C` (stereo partly drawn) [[(R)-2-(N,N-Diethylamino)ethylthio-Sar]-3-[NMeIle]-4-cyclosporin] (cyclo(A[dA][NMeL][NMeL][NMeV][MeBmt][Abu][X1][NMeIle(3ξ)]V[NMeL])), the IC50 falls from 70 nM to 40 nM (1.8-fold). The second is the more potent here.

Compared with `CCCC[C@@H](C)[C@@H](O)[C@H]1C(=O)N[C@@H](CC)C(=O)N(C)[C@H](SCCCN2CCOCC2)C(=O)N(C)[C@@H](CC(C)(C)OC)C(=O)N[C@@H](C(C)C)C(=O)N(C)[C@@H](CC(C)C)C(=O)N[C@@H](C)C(=O)N[C@H](C)C(=O)N(C)[C@@H](CC(C)C)C(=O)N(C)[C@@H](CC(C)C)C(=O)N(C)[C@@H](C(C)C)C(=O)N1C` [Example 10, [(R)-3-(N-Morphlino)propylthio-Sar]-3-[(γ-Methoxy)-NMeLeu]-4-Dihydrocyclosporin] (cyclo(A[dA][NMeL][NMeL][NMeV][NMe(dihydroBmt)][Abu][X2][NMeLeu(4-OMe)]V[NMeL])), `C/C=C/C[C@@H](C)[C@@H](O)[C@H]1C(=O)N[C@@H](CC)C(=O)N(C)CC(=O)N(C)[C@@H]([C@@H](C)CC)C(=O)N[C@@H](C(C)C)C(=O)N(C)[C@@H](CC(C)C)C(=O)N[C@@H](C)C(=O)N[C@H](C)C(=O)N(C)[C@@H](CC(C)C)C(=O)N(C)[C@@H](CC(C)C)C(=O)N(C)[C@@H](C(C)C)C(=O)N1C` [SDZ-NIM-811, N-MeIle-4-Cyclosporin] is 1.7-fold higher in IC50: 90 nM for the first, 150 nM for the second. The first is the more potent here.
